Laboratory results reported in patent US9657057B2, “Dipeptide and tripeptide epoxy ketone protease inhibitors” (Onyx Therapeutics, Inc., priority 2013, dated 2017).
Values after ≈ are worked out from the molar mass of the structure shown. Where two headings read alike, the source gives them in different places.

How the values were obtained:
LMP2 = molecular target: T1, LMP2 (Homo sapiens, UniProt P28065+P40306); test: ProCISE proteasome subunit assay, LMP2; assay type: biochemical
T1 construct: endogenous in cells; host or cells: MOLT-4
Protocol: (§1) This assay was used to assess the inhibitory activity against each of LMP2, LMP7, MECL1, β1, β2, and β5. Briefly, test compounds were serially diluted in DMSO at 100× concentration, then diluted to 10× in aqueous hypotonic lysis buffer. Lysate from the human acute lymphoblastic leukemia cell line, MOLT-4, was treated for 1 hour at 25° C. with compound at a final 1× concentration. […] Following this, lysate was denatured in guanidine hydrochloride, and subunits bound to probe were isolated with streptavidin-conjugated sepharose beads. Individual subunits were probed with subunit-specific primary antibodies, followed by HRP-conjugated secondary antibodies. A chemiluminescent substrate was used to generate signal associated with HRP binding, which was detected on a plate reader. Luminescent signal was normalized to protein content, then, percent activity calculated relative to DMSO-treated controls to generate IC50 curves.

Solubility pH 7 = assay type: physicochemical; conditions: pH 7, aqueous buffer
[1] = molecular target: i20S (20S immunoproteasome) (Homo sapiens, UniProt P20618+P28062); test: 20S proteasome assay, chymotrypsin-like activity (LLVY), i20S; assay type: biochemical; conditions: LLVY i20S Hu 1 h CONT: IC50 (nM), succinyl-Leu-Leu-Val-Tyr-AMC
Source text: (§2) Assay buffer consisted of TE buffer [20 mmol/L Tris (pH 8.0), 0.5 mmol/L EDTA] with (20S) or without (cell lysate) 0.03% SDS. Reactions were initiated by enzyme or lysate addition and monitored for AMC product formation at 27jC with a plate-based spectofluorometer (Tecan).

β5 = molecular target: T2, β5 (Homo sapiens, UniProt P20618+P28074); test: ProCISE proteasome subunit assay, β5; assay type: biochemical; conditions: MOLT4 lysate Hu 1 h
T2 construct: endogenous in cells; host or cells: MOLT-4
Procedure, shortened: (§3)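 MOLT-4 cell lysate was incubated with compound for 1 h at 25° C, then a subunit-binding probe was applied; probe-bound subunits were pulled down on streptavidin beads after guanidine denaturation and detected with subunit-specific antibodies by HRP chemiluminescence. Signal was normalized to protein and expressed as percent of DMSO control to fit IC50.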

LMP7 = molecular target: T3, LMP7 (Homo sapiens, UniProt P20618+P28062); test: ProCISE proteasome subunit assay, LMP7; assay type: biochemical; conditions: MOLT4 lysate Hu 1 h
T3 construct: endogenous in cells; host or cells: MOLT-4
Procedure, shortened: as §3

[2] = molecular target: c20S (constitutive 20S proteasome) (Homo sapiens, UniProt P20618+P28074); test: 20S proteasome assay, chymotrypsin-like activity (LLVY), c20S; assay type: biochemical; conditions: LLVY c20S Hu 1 h CONT: IC50 (nM), succinyl-Leu-Leu-Val-Tyr-AMC
Source text: as §2

β2 = β2 (Homo sapiens, UniProt P49720+Q99436); test: ProCISE proteasome subunit assay, β2; assay type: biochemical; conditions: MOLT-4 lysate, 1 hour at 25° C.
Protocol: as §1

MECL1 = MECL1 (Homo sapiens, UniProt P40306+P49720); test: ProCISE proteasome subunit assay, MECL1; assay type: biochemical; conditions: MOLT-4 lysate, 1 hour at 25° C.
Protocol: as §1

β1 = β1 (Homo sapiens, UniProt P28072+Q99436); test: ProCISE proteasome subunit assay, β1; assay type: biochemical; conditions: MOLT-4 lysate, 1 hour at 25° C.
Protocol: as §1

[3] = ProCISE LMP2 MOLT4 lysate Hu 1 h CONT: IC50 (nM), MOLT4 lysate Hu 1 h

| SMILES | IC50 (LMP2; MOLT4 lysate Hu 1 h) [nM] | solubility (Solubility pH 7) [µg/mL] | IC50 (β5) [µM] | IC50 (LMP7) [µM] | other results |
| --- | --- | --- | --- | --- | --- |
| COc1ccc(C[C@H](NC(=O)[C@@H](C)NC(=O)c2ncc[nH]2)C(=O)N[C@@H](CC2CCCC2)C(=O)[C@@]2(C)CO2)cc1 [Compound C-2034, N—((R)-1-(((S)-1-(((S)-3-cyclopentyl-1-((R)-2-methyloxiran-2-yl)-1-oxopropan-2-yl)amino)-3-(4-methoxyphenyl)-1-oxopropan-2-yl)amino)-1-oxopropan-2-yl)-1H-imidazole-2-carboxamide] | 471 | 55.5 (≈ 103 µM) | > 250 | 19.7 | IC50 [1]: 19500 nM; IC50 [2]: 64400 nM |
| COc1ccc(C[C@H](NC(=O)c2cccc(=O)[nH]2)C(=O)N[C@@H](Cc2ccccc2)C(=O)[C@@]2(C)CO2)cc1 [Compound C-3008, N—((S)-3-(4-Methoxyphenyl)-1-(((S)-1-((R)-2-methyloxiran-2-yl)-1-oxo-3-phenylpropan-2-yl)amino)-1-oxopropan-2-yl)-6-oxo-1,6-dihydropyridine-2-carboxamide] |  |  |  |  | IC50 (β2): > 250 µM; IC50 (LMP2; [3]): 109 nM; IC50 (LMP2; ProCISE, MOLT-4 lysate, 1 hour at 25° C., read-out: LMP2): 109 nM; IC50 (MECL1): > 250 µM; IC50 (β1): 99.2 µM |
| COc1ccc(C[C@H](NC(=O)c2cccc(=O)[nH]2)C(=O)N[C@@H](CC2CCCC2)C(=O)[C@@]2(C)CO2)cc1 [Compound C-3014, N—((S)-1-(((S)-3-Cyclopentyl-1-((R)-2-methyloxiran-2-yl)-1-oxopropan-2-yl)amino)-3-(4-methoxyphenyl)-1-oxopropan-2-yl)-6-oxo-1,6-dihydropyridine-2-carboxamide] | 34.9 | 69.4 (≈ 140 µM) |  |  |  |
| C[C@H](NC(=O)c1cccc(=O)[nH]1)C(=O)N[C@@H](Cc1ccccc1)C(=O)[C@@]1(C)CO1 [Compound C-3016, N—((S)-1-(((S)-1-((R)-2-Methyloxiran-2-yl)-1-oxo-3-phenylpropan-2-yl)amino)-1-oxopropan-2-yl)-6-oxo-1,6-dihydropyridine-2-carboxamide] | 55 | 7520 (≈ 18900 µM) |  |  |  |
| C[C@]1(C(=O)[C@H](Cc2ccccc2)NC(=O)[C@H](CO)NC(=O)c2cccc(=O)[nH]2)CO1 [Compound C-3017, N—((S)-3-Hydroxy-1-(((S)-1-((R)-2-methyloxiran-2-yl)-1-oxo-3-phenylpropan-2-yl)amino)-1-oxopropan-2-yl)-6-oxo-1,6-dihydropyridine-2-carboxamide] |  | 6640 (≈ 16100 µM) |  |  | IC50 (LMP2; [3]): 33 nM |
| C[C@H](NC(=O)c1cccc(=O)[nH]1)C(=O)N[C@@H](CC1CCCC1)C(=O)[C@@]1(C)CO1 [Compound C-3018, N—((S)-1-(((S)-3-Cyclopentyl-1-((R)-2-methyloxiran-2-yl)-1-oxopropan-2-yl)amino)-1-oxopropan-2-yl)-6-oxo-1,6-dihydropyridine-2-carboxamide] | 24.9 | 516 (≈ 1320 µM) |  |  |  |
| C[C@]1(C(=O)[C@H](CC2CCCC2)NC(=O)[C@H](CO)NC(=O)c2cccc(=O)[nH]2)CO1 [Compound C-3019, N—((S)-1-(((S)-3-Cyclopentyl-1-((R)-2-methyloxiran-2-yl)-1-oxopropan-2-yl)amino)-3-hydroxy-1-oxopropan-2-yl)-6-oxo-1,6-dihydropyridine-2-carboxamide] | 16.8 | 639 (≈ 1580 µM) |  |  |  |

Continued, in another order:

| IC50 (LMP2; MOLT4 lysate Hu 1 h) [nM] | solubility (Solubility pH 7) [µg/mL] | IC50 (β5) [µM] | IC50 (LMP7) [µM] | SMILES | other results |
| --- | --- | --- | --- | --- | --- |
| 526 |  | 5.59 | 4.77 | COc1ccc(C[C@H](NC(=O)c2ccnc(N3CCOCC3)n2)C(=O)N[C@@H](Cc2ccccc2)C(=O)[C@@]2(C)CO2)cc1 [Compound C-3001] |  |
| 274 | 86.7 (≈ 166 µM) | 9.84 | 3.46 | COc1ccc(C[C@H](NC(=O)[C@@](C)(O)C(F)(F)F)C(=O)N[C@@H](Cc2ccccc2)C(=O)[C@@]2(C)CO2)cc1 [Compound C-3007, (R)-3,3,3-Trifluoro-2-hydroxy-N—((S)-3-(4-methoxyphenyl)-1-(((S)-1-((R)-2-methyloxiran-2-yl)-1-oxo-3-phenylpropan-2-yl)amino)-1-oxopropan-2-yl)-2-methylpropanamide] |  |
| 517 |  | 8.29 | 4.57 | COc1ccc(C[C@H](NC(=O)[C@H]2CCCC(=O)N2)C(=O)N[C@@H](Cc2ccccc2)C(=O)[C@@]2(C)CO2)cc1 [Compound C-3009, (R)—N—((S)-3-(4-Methoxyphenyl)-1-(((S)-1-((R)-2-methyloxiran-2-yl)-1-oxo-3-phenylpropan-2-yl)amino)-1-oxopropan-2-yl)-6-oxopiperidine-2-carboxamide] | IC50 [1]: 9890 nM; IC50 [2]: 87800 nM |
|  | 1910 (≈ 3870 µM) | 14.2 | 3.48 | COc1ccc(C[C@H](NC(=O)[C@@H]2CCC(=O)N2)C(=O)N[C@@H](Cc2ccccc2)C(=O)[C@@]2(C)CO2)cc1 [Compound C-3013, (S)—N—((S)-3-(4-methoxyphenyl)-1-(((S)-1-((R)-2-methyloxiran-2-yl)-1-oxo-3-phenylpropan-2-yl)amino)-1-oxopropan-2-yl)-5-oxopyrrolidine-2-carboxamide] | IC50 [1]: 4050 nM; IC50 [2]: 15900 nM |
| 37.6 | 143 (≈ 291 µM) |  |  | COc1ccc(C[C@H](NC(=O)c2cccc(=O)[nH]2)C(=O)N[C@@H](CC2=CCCC2)C(=O)[C@@]2(C)CO2)cc1 [Compound C-3015, N—((S)-1-(((S)-3-(Cyclopent-1-en-1-yl)-1-((R)-2-methyloxiran-2-yl)-1-oxopropan-2-yl)amino)-3-(4-methoxyphenyl)-1-oxopropan-2-yl)-6-oxo-1,6-dihydropyridine-2-carboxamide] |  |
